Test results published in patent US20250051347A1, “BIFUNCTIONAL CHIMERIC HETEROCYCLIC COMPOUND AND USE THEREOF AS ANDROGEN RECEPTOR DEGRADER” (Hinova Pharmaceuticals, Inc., priority 2021, published 2025).

Target: T1, androgen receptor (AR) splicing variant AR-v7 (Homo sapiens, UniProt P10275)
T1 construct: The degradation activity of compounds on AR-v7 in 22RV1 cells; host or cells: 22RV1 cells
T1 sequence (P10275 1-644 isoform P10275-3): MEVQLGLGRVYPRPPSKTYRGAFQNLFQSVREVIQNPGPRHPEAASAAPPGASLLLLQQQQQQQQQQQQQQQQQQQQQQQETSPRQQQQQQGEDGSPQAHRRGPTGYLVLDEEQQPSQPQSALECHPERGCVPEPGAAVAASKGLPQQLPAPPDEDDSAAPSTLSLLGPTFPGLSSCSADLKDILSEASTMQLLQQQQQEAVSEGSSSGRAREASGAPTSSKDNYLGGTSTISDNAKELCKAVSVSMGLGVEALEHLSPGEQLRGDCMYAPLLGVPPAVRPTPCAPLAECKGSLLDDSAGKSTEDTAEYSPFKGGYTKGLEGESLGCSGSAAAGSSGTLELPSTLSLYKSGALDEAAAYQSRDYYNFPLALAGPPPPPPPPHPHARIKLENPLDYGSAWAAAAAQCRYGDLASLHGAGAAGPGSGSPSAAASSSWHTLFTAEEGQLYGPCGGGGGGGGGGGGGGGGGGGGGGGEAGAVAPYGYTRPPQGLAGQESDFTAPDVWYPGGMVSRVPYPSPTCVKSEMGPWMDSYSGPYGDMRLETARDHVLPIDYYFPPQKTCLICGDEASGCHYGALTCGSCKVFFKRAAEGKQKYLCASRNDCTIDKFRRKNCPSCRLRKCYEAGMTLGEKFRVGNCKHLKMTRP
Test: Degradation activity on androgen receptor splicing variant AR-v7 in 22RV1 cells (ELISA)
Type: cell-based
Settings: AR-v7 degradation in 22RV1 cells, 48 h

SMILES: CC(C)(c1ccc(Oc2cnc(C#N)cn2)cc1)c1ccc(O[C@H]2C[C@H](Nc3ccc4c(c3)C(=O)N(C3CCC(=O)NC3=O)C4=O)C2)cc1 (stereo partly drawn) [Example 594, 5-(4-(2-(4-((1r,3r)-3-((2-(2,6-dioxopiperidin-3-yl)-1,3-dioxoisoindolin-5-yl)amino)cyclobutyloxy)phenyl)propan-2-yl)phenoxy)pyrazin-2-nitrile]
- DC50 (class symbols): 0.011 to 0.1 µM

SMILES: CC(=O)c1nccc(COc2ccc(C(C)(C)c3ccc(OC4CCCN(c5ccc6c(c5)C(=O)N(C5CCC(=O)NC5=O)C6=O)C4)cc3)cc2)n1 (stereo not drawn) [Example 107]
- DC50 (numeric values): > 10 µM

SMILES: CC(C)(c1ccc(OCCCNc2ccc3c(c2)C(=O)N(C2CCC(=O)NC2=O)C3=O)cc1)c1ccc(OCc2nc3ncccc3o2)cc1 (stereo not drawn) [Example 442, 2-(2,6-dioxopiperidin-3-yl)-5-((3-(4-(2-(4-(oxazolo[4,5-b]pyridin-2-ylmethoxy)phenyl)propan-2-yl)phenoxy)propyl)amino)isoindolin-1,3-dione]
- DC50 (class symbols): 0.011 to 0.1 µM

SMILES: CC(C)(c1ccc(OCCCCCCCOCCCN2CCN(c3ccc4c(c3)C(=O)N(C3CCC(=O)NC3=O)C4=O)CC2)cc1)c1ccc(OCc2ccnc(NS(C)(=O)=O)n2)cc1 (stereo not drawn) [Example 7, N-(4-((4-(2-(4-((7-(3-(4-(2-(2,6-dioxopiperidin-3-yl)-1,3-dioxoisoindolin-5-yl)piperazin-1-yl)propoxy)heptyl)oxy)phenyl)propan-2-yl)phenoxy)methyl)pyrimidin-2-yl)methanesulfonamide]
- DC50 (numeric values): > 10 µM

SMILES: CC(C)(c1ccc(Oc2ccc(-n3nccn3)nc2)cc1)c1ccc(OC2CC(Nc3ccc4c(c3)CN(C3CCC(=O)NC3=O)C4=O)C2)cc1 (stereo not drawn) [Example 93, 3-(5-((1r,3r)-3-(4-(2-(4-((6-(2H-1,2,3-triazol-2-yl)pyridin-3-yl)oxy)phenyl)propan-2-yl)phenoxy)cyclobutyl)amino)-1-oxoisoindolin-2-yl)piperidin-2,6-dione]
- DC50 (class symbols): 0.101 to 1 µM

SMILES: CC1(CNc2nccc(COc3ccc(C(C)(C)c4ccc(O[C@H]5C[C@@H](Nc6ccc7c(c6)C(=O)N(C6CCC(=O)NC6=O)C7=O)C5)cc4)cc3)n2)CNC1 (stereo partly drawn) [Example 457]
- DC50 (class symbols): 0.011 to 0.1 µM

SMILES: CCOC(=O)c1ncc(Oc2ccc(C(C)(C)c3ccc(O[C@H]4C[C@H](Nc5ccc6c(c5)C(=O)N(C5CCC(=O)NC5=O)C6=O)C4)cc3)cc2)cn1 (stereo partly drawn) [Example 381, ethyl 5-(4-(2-(4-((1r,3r)-3-((2-(2,6-dioxopiperidin-3-yl)-1,3-dioxoisoindolin-5-yl)amino)cyclobutyloxy)phenyl)isopropan-2-yl)phenoxy)pyrimidin-2-carboxylate]
- DC50 (class symbols): 0.011 to 0.1 µM

SMILES: CN(C)[C@H]1CCN(c2nccc(COc3ccc(C(C)(C)c4ccc(O[C@H]5C[C@@H](Nc6ccc7c(c6)C(=O)N(C6CCC(=O)NC6=O)C7=O)C5)cc4)cc3)n2)C1 (stereo partly drawn) [Example 238]
- DC50 (class symbols): 0.011 to 0.1 µM

SMILES: CC(C)[C@@H](COc1ccc(C(C)(C)c2ccc(OCc3ccnc(N4CC5(COC5)C4)n3)cc2)cc1)Nc1ccc2c(c1)C(=O)N(C1CCC(=O)NC1=O)C2=O (stereo partly drawn) [Example 150]
- DC50 (class symbols): 0.011 to 0.1 µM

SMILES: CC(=O)c1nccc(COc2ccc(C(C)(C)c3ccc(OCC4CCCN(c5cccc6c5C(=O)N(C5CCC(=O)NC5=O)C6=O)C4)cc3)cc2)n1 (stereo not drawn) [Example 303, 4-(3-((4-(2-(4-((2-acetylpyrimidin-4-yl)methoxy)phenyl)propan-2-yl)phenoxy)methyl)piperidin-1-yl)-2-(2,6-dioxopiperidin-3-yl)isoindolin-1,3-dione]
- DC50 (numeric values): > 10 µM

SMILES: CC(O)c1nccc(COc2ccc(C(C)(C)c3ccc(O[C@H]4CC[C@H](Nc5ccc6c(c5)C(=O)N(C5CCC(=O)NC5=O)C6=O)CC4)cc3)cc2)n1 (stereo partly drawn) [Example 354, 2-(2,6-dioxopiperidin-3-yl)-5-(((1r,4r)-4-(4-(2-(4-((2-(1-hydroxylethyl)pyrimidin-4-yl)methoxy)phenyl)isopropan-2-yl)phenoxy)cyclohexyl)amino)isoindolin-1,3-dione]
- DC50 (class symbols): 1 to 5 µM

SMILES: CC(C)(c1ccc(Oc2ccc(-n3ccnn3)nc2)cc1)c1ccc(O[C@H]2C[C@@H](Nc3ccc4c(c3)C(=O)N(C3CCC(=O)NC3=O)C4=O)C2)cc1 (stereo partly drawn) [Example 541, 5-((1s,3s)-3-(4-(2-(4-((6-(1H-1,2,3-triazol-1-yl)pyridin-3-yl)oxy)phenyl)propan-2-ylphenoxy)cyclobutyl)amino)-2-(2,6-dioxopiperidin-3-yl)isoindolin-1,3-dione]
- DC50 (class symbols): 0.011 to 0.1 µM

SMILES: CC(C)(c1ccc(OCc2ccnc(NS(C)(=O)=O)n2)cc1)c1ccc(OC2CN(c3cccc4c3C(=O)N(C3CCC(=O)NC3=O)C4=O)C2)cc1 (stereo not drawn) [Example 47, N-(4-((4-(2-(4-((1-(2-(2,6-dioxopiperidin-3-yl)-1,3-dioxoisoindolin-4-yl)azetidin-3-yl)oxy)phenyl)propan-2-yl)phenoxy)methyl)pyrimidin-2-yl)methanesulfonamide]
- DC50 (class symbols): 0.101 to 1 µM

SMILES: O=C1CCC(N2C(=O)c3ccc(N[C@H]4C[C@H](Oc5ccc(C6(c7ccc(Oc8ccc(-n9ccnn9)nn8)cc7)CC6)cc5)C4)cc3C2=O)C(=O)N1 (stereo partly drawn) [Example 375, 5-(((1r,3r)-3-(4-(1-(4-((6-(1H-1,2,3-triazole-1-yl)pyridazine-3-yl)oxy)phenyl)cyclopropyl)phenoxy)cyclobutyl)amino)-2-(2,6-dioxopiperidin-3-yl)isoindolin-1,3-dione]
- DC50 (class symbols): 0.011 to 0.1 µM

SMILES: Cc1nc(-c2cccc(COc3ccc(C(C)(C)c4ccc(O[C@H]5C[C@H](Nc6ccc7c(c6)C(=O)N(C6CCC(=O)NC6=O)C7=O)C5)cc4)cc3)n2)no1 (stereo partly drawn) [Example 283]
- DC50 (class symbols): 0.011 to 0.1 µM

SMILES: CCN1CC(Oc2nccc(COc3ccc(C(C)(C)c4ccc(O[C@H]5C[C@@H](Nc6ccc7c(c6)C(=O)N(C6CCC(=O)NC6=O)C7=O)C5)cc4)cc3)n2)C1 (stereo partly drawn) [Example 466]
- DC50 (class symbols): 0.011 to 0.1 µM

SMILES: Cc1nnc(-c2ncc(Oc3ccc(C(C)(C)c4ccc(O[C@H]5C[C@@H](Nc6ccc7c(c6)C(=O)N(C6CCC(=O)NC6=O)C7=O)C5)cc4)cc3)cn2)o1 (stereo partly drawn) [Example 484]
- DC50 (class symbols): 0.011 to 0.1 µM

SMILES: CC(C)(c1ccc(Oc2cnc(-n3nccn3)c(Cl)c2)cc1)c1ccc(O[C@H]2C[C@H](Nc3ccc4c(c3)C(=O)N(C3CCC(=O)NC3=O)C4=O)C2)cc1 (stereo partly drawn) [Example 515]
- DC50 (class symbols): 0.011 to 0.1 µM

SMILES: C[C@@H]1CN(c2nccc(COc3ccc(C(C)(C)c4ccc(O[C@H]5C[C@@H](Nc6ccc7c(c6)C(=O)N(C6CCC(=O)NC6=O)C7=O)C5)cc4)cc3)n2)[C@H](C)CN1 (stereo partly drawn) [Example 408]
- DC50 (class symbols): 0.011 to 0.1 µM

SMILES: Cc1nnc(-c2ccnc(Oc3ccc(C(C)(C)c4ccc(O[C@H]5C[C@H](Nc6ccc7c(c6)C(=O)N(C6CCC(=O)NC6=O)C7=O)C5)cc4)cc3)c2)o1 (stereo partly drawn) [Example 257]
- DC50 (class symbols): 0.011 to 0.1 µM

SMILES: CCC(CC)(c1ccc(OCCCNc2ccc3c(c2)C(=O)N(C2CCC(=O)NC2=O)C3=O)cc1)c1ccc(OCc2ccnc(C(C)=O)n2)cc1 (stereo not drawn) [Example 439, 5-((3-(4-(3-(4-((2-acetylpyrimidin-4-yl)methoxy)phenyl)pentan-3-yl)phenoxy)propyl)amino)-2-(2,6-dioxopiperidine-3-amino)isoindolin-1,3-dione]
- DC50 (class symbols): 0.011 to 0.1 µM

SMILES: CC(C)(c1ccc(OCc2ccnc(NS(C)(=O)=O)n2)cc1)c1ccc(OC2CN(c3ccc4c(c3)C(=O)N(C3CCC(=O)NC3=O)C4=O)C2)cc1 (stereo not drawn) [Example 46, N-(4-((4-(2-(4-((1-(2-(2,6-dioxopiperidin-3-yl)-1,3-dioxoisoindolin-5-yl)azetidin-3-yl)oxy)phenyl)propan-2-yl)phenoxy)methyl)pyrimidin-2-yl)methanesulfonamide]
- DC50 (numeric values): > 5 µM

SMILES: CC(C)(c1ccc(Oc2ncc(F)c(N3CC4(COC4)C3)n2)cc1)c1ccc(O[C@H]2C[C@@H](Nc3ccc4c(c3)C(=O)N(C3CCC(=O)NC3=O)C4=O)C2)cc1 (stereo partly drawn) [Example 157]
- DC50 (class symbols): 0.011 to 0.1 µM

SMILES: Cc1nc(-c2cccc(Oc3ccc(C(C)(C)c4ccc(O[C@H]5C[C@@H](Nc6ccc7c(c6)C(=O)N(C6CCC(=O)NC6=O)C7=O)C5)cc4)cc3)n2)no1 (stereo partly drawn) [Example 422]
- DC50 (class symbols): 0.011 to 0.1 µM

SMILES: CC(C)[C@H](COc1ccc(C(C)(C)c2ccc(OCc3ccnc(N4CC5(COC5)C4)n3)cc2)cc1)Nc1ccc2c(c1)C(=O)N(C1CCC(=O)NC1=O)C2=O (stereo partly drawn) [Example 149]
- DC50 (class symbols): 1 to 5 µM

SMILES: CC(C)(c1ccc(OCc2ccnc(OC3CCN(C(=O)OCc4ccccc4)CC3)n2)cc1)c1ccc(O[C@H]2C[C@@H](Nc3ccc4c(c3)C(=O)N(C3CCC(=O)NC3=O)C4=O)C2)cc1 (stereo partly drawn) [Example 235]
- DC50 (class symbols): 0.101 to 1 µM

SMILES: CN1CCN(c2nccc(COc3ccc(C(C)(C)c4ccc(OCCCNc5cccc6c5C(=O)N(C5CCC(=O)NC5=O)C6=O)cc4)cc3)n2)CC1 (stereo not drawn) [Example 60]
- DC50 (class symbols): 0.101 to 1 µM

SMILES: CC(C)(c1ccc(OCCCCCCCCOCCN2CCN(c3ccc4c(c3)C(=O)N(C3CCC(=O)NC3=O)C4=O)CC2)cc1)c1ccc(OCc2ccnc(NS(C)(=O)=O)n2)cc1 (stereo not drawn) [Example 1, N-(4-((4-(2-(4-((8-(2-(4-(2-(2,6-dioxopiperidin-3-yl)-1,3-dioxoisoindolin-5-yl)piperazin-1-yl)ethoxy)octyl)oxy)phenyl)propan-2-yl)phenoxy)methyl)pyrimidin-2-yl)methanesulfonamide]
- DC50 (class symbols): 0.101 to 1 µM

SMILES: Cc1nccc(Oc2ccc(C(C)(C)c3ccc(O[C@H]4C[C@@H](Nc5ccc6c(c5)C(=O)N(C5CCC(=O)NC5=O)C6=O)C4)cc3)cc2)n1 (stereo partly drawn) [Example 198]
- DC50 (class symbols): 0.011 to 0.1 µM

SMILES: Cc1nnc(-c2ccc(Oc3ccc(C(C)(C)c4ccc(O[C@H]5C[C@H](Nc6ccc7c(c6)C(=O)N(C6CCC(=O)NC6=O)C7=O)C5)cc4)cc3)nc2)o1 (stereo partly drawn) [Example 216]
- DC50 (class symbols): 0.011 to 0.1 µM
